From patent publication US9670202B2, “Substituted triazolopyridines” (BAYER PHARMA AKTIENGESELLSCHAFT, priority 2013, dated 2017)
Where a name gives a salt, the structure may show the parent alone.

biological target: human kinase Mps-1 (Homo sapiens (Human), UniProt P33981); test: Mps-1 kinase assay (TR-FRET, 10 μM ATP); type: biochemical; conditions: N-terminally GST-tagged human full length recombinant Mps-1, read-out: Mps-1 Inhibition, IC50 (Assay with 10 μM ATP)
Description: The human kinase Mps-1 phosphorylates a biotinylated substrate peptide. Detection of the phosphorylated product is achieved by time-resolved fluorescence resonance energy transfer (TR-FRET) from Europium-labelled anti-phospho-Serine/Threonine antibody as donor to streptavidin labelled with cross-linked allophycocyanin (SA-XLent) as acceptor. Compounds are tested for their inhibition of the kinase activity.
N-terminally GST-tagged human full length recombinant Mps-1 kinase (purchased from Invitrogen, Karslruhe, Germany, cat. no PV4071) was used. As substrate for the kinase reaction a biotinylated peptide of the amino-acid sequence […]
The concentration of Mps-1 in the assay was adjusted to the activity of the enzyme lot and was chosen appropriate to have the assay in the linear range, typical enzyme concentrations were in the range of about 1 nM (final conc. in the 5 μl assay volume).
The resulting mixture was incubated 1 h at 22° C. to allow the binding of the phosphorylated peptide to the anti-phospho(Ser/Thr)-Europium-antibody. Subsequently the amount of phosphorylated substrate was evaluated by measurement of the resonance energy transfer from the Europium-labelled anti-phospho(Ser/Thr) antibody to the Streptavidin-XLent. Therefore, the fluorescence emissions at 620 nm and 665 nm after excitation at 350 nm was measured in a Viewlux TR-FRET reader (PerkinElmer LAS, Rodgau-Jügesheinn, Germany). The “blank-corrected normalized ratio” (a Viewlux specific readout, similar to the traditional ratio of the emissions at 665 nm and at 622 nm, in which blank and Eu-donor crosstalk are subtracted from the 665 nm signal before the ratio is calculated) was taken as the measure for the amount of phosphorylated substrate.

human kinase Mps-1, sequence (P33981 whole entry): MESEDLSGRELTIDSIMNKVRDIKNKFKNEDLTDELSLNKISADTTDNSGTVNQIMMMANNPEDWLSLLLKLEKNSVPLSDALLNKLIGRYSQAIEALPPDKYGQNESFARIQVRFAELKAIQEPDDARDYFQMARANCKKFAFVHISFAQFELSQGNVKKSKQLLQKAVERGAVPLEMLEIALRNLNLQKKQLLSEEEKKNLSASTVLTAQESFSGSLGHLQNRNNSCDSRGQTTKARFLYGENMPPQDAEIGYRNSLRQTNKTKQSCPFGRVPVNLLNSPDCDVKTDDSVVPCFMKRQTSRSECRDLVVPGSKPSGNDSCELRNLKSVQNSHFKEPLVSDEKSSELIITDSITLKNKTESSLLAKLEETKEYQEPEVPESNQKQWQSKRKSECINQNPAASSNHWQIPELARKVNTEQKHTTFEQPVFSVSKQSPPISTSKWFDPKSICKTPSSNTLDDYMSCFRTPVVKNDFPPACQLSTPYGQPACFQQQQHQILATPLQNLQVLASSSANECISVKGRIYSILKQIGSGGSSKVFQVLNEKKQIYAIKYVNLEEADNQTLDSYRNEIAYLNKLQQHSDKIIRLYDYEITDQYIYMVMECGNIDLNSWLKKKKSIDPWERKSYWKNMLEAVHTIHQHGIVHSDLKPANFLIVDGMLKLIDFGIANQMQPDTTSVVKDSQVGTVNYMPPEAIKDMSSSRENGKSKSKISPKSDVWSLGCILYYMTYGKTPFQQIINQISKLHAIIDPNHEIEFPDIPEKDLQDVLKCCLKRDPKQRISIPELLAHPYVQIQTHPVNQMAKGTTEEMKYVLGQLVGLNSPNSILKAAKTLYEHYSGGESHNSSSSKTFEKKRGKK

SMILES | IC50 [nM]
CCNC(=O)c1ccc(Nc2nc3ccc(N4CCN(C(=O)NCc5ccc(F)cc5)CC4)cn3n2)c(OCC)c1 [Example 01.01, 4-(2-{[2-ethoxy-4-(ethylcarbamoyl)phenyl]amino}[1,2,4]triazolo[1,5-a]-pyridin-6-yl)-N-(4-fluorobenzyl)piperazine-1-carboxamide] | 3.1
CC(C)(C)NC(=O)c1ccc(Nc2nc3ccc(N4CCN(C(=O)NCc5ccc(F)cc5)CC4)cn3n2)c(OCC(F)(F)F)c1 [Example 01.02, 4-(2-{[4-(tert-butylcarbamoyl)-2-(2,2,2-trifluoroethoxy)phenyl]amino}-[1,2,4]triazolo[1,5-a]pyridin-6-yl)-N-(4-fluorobenzyl)piperazine-1-carboxamide] | 5.6
CCN(CC)C(=O)c1ccc(Nc2nc3ccc(N4CCN(C(=O)NCc5ccc(F)cc5)CC4)cn3n2)c(OC)c1 [Example 01.03, 4-(2-{[4-(diethylcarbamoyl)-2-methoxyphenyl]amino}[1,2,4]triazolo[1,5-a]pyridin-6-yl)-N-(4-fluorobenzyl)piperazine-1-carboxamide] | 7.9
CCOc1cc(C(=O)N2CCOCC2)ccc1Nc1nc2ccc(N3CCN(C(=O)NCc4ccc(F)cc4)CC3)cn2n1 [Example 01.04, 4-(2-{[2-ethoxy-4-(morpholin-4-ylcarbonyl)phenyl]amino}[1,2,4]triazolo-[1,5-a]pyridin-6-yl)-N-(4-fluorobenzyl)piperazine-1-carboxamide] | 2.6
CCCOc1cc(C(=O)N(CC)CC)ccc1Nc1nc2ccc(N3CCN(C(=O)NCc4ccc(F)cc4)CC3)cn2n1 [Example 01.05, 4-(2-{[4-(diethylcarbamoyl)-2-propoxyphenyl]amino}[1,2,4]triazolo[1,5-a]pyridin-6-yl)-N-(4-fluorobenzyl)piperazine-1-carboxamide] | 9.7
CCN(CC)C(=O)c1ccc(Nc2nc3ccc(N4CCN(C(=O)NCc5ccc(F)cc5)CC4)cn3n2)c(OCC(C)C)c1 [Example 01.06, 4-(2-{[4-(diethylcarbamoyl)-2-(2-methylpropoxy)phenyl]amino}[1,2,4]-triazolo[1,5-a]pyridin-6-yl)-N-(4-fluorobenzyl)piperazine-1-carboxamide trifluoroacetate] | 28.5
CCN(CC)C(=O)c1ccc(Nc2nc3ccc(N4CCN(C(=O)NCc5ccc(F)cc5)CC4)cn3n2)c(OCC2CC2)c1 [Example 01.07, 4-(2-{[2-(cyclopropylmethoxy)-4-(diethylcarbamoyl)phenyl]amino}[1,2,4]-triazolo[1,5-a]pyridin-6-yl)-N-(4-fluorobenzyl)piperazine-1-carboxamide] | 20.6
CCN(CC)C(=O)c1ccc(Nc2nc3ccc(N4CCN(C(=O)NCc5ccc(F)cc5)CC4)cn3n2)c(OCCOC)c1 [Example 01.08, 4-(2-{[4-(diethylcarbamoyl)-2-(2-methoxyethoxy)phenyl]amino}[1,2,4]-triazolo[1,5-a]pyridin-6-yl)-N-(4-fluorobenzyl)piperazine-1-carboxamide] | 57
CCN(CC)C(=O)c1ccc(Nc2nc3ccc(N4CCN(C(=O)NCc5ccc(F)cc5)CC4)cn3n2)c(OCC(F)(F)F)c1 [Example 01.09, 4-(2-{[4-(diethylcarbamoyl)-2-(2,2,2-trifluoroethoxy)phenyl]amino}[1,2,4]-triazolo[1,5-a]pyridin-6-yl)-N-(4-fluorobenzyl)piperazine-1-carboxamide trifluoroacetate] | 1.7
COc1cc(N2CCN(C)CC2)ccc1Nc1nc2ccc(N3CCN(C(=O)NCc4ccc(F)cc4)CC3)cn2n1 [Example 01.10, N-(4-fluorobenzyl)-4-(2-{[2-methoxy-4-(4-methylpiperazin-1-yl)phenyl]-amino}[1,2,4]triazolo[1,5-a]pyridin-6-yl)piperazine-1-carboxamide] | 9.2
COc1cc(Nc2nc3ccc(N4CCN(C(=O)NCc5ccc(F)cc5)CC4)cn3n2)ccc1C(=O)N1CCOCC1 [Example 01.11, N-(4-fluorobenzyl)-4-(2-{[3-methoxy-4-(morpholin-4-ylcarbonyl)phenyl]-amino}[1,2,4]triazolo[1,5-a]pyridin-6-yl)piperazine-1-carboxamide] | 45.6
COc1ncccc1Nc1nc2ccc(N3CCN(C(=O)NCc4ccc(F)cc4)CC3)cn2n1 [Example 01.12, N-(4-fluorobenzyl)-4-{2-[(2-methoxypyridin-3-yl)amino][1,2,4]triazolo[1,5-a]pyridin-6-yl}piperazine-1-carboxamide] | 18.6
CCOc1ncccc1Nc1nc2ccc(N3CCN(C(=O)NCc4ccc(F)cc4)CC3)cn2n1 [Example 01.13, 4-{2-[(2-ethoxypyridin-3-yl)amino][1,2,4]triazolo[1,5-a]pyridin-6-yl}-N-(4-fluorobenzyl)piperazine-1-carboxamide] | 8.9
N#Cc1ccccc1Nc1nc2ccc(N3CCN(C(=O)NCc4ccc(F)cc4)CC3)cn2n1 [Example 01.14, 4-{2-[(2-cyanophenyl)amino][1,2,4]triazolo[1,5-a]pyridin-6-yl}-N-(4-fluoro-benzyl)piperazine-1-carboxamide] | 8
CCOc1cc(C(=O)N2CCOCC2)ccc1Nc1nc2ccc(N3CCC(C(=O)NCc4ccc(F)cc4)CC3)cn2n1 [Example 02.01, 1-(2-{[2-ethoxy-4-(morpholin-4-ylcarbonyl)phenyl]amino}[1,2,4]triazolo-[1,5-a]pyridin-6-yl)-N-(4-fluorobenzyl)piperidine-4-carboxamide] | 32.2
CCNC(=O)c1ccc(Nc2nc3ccc(N4CCC(C(=O)NCC5CC5)CC4)cn3n2)c(OCC)c1 [Example 03.01, N-(cyclopropylmethyl)-1-(2-{[2-ethoxy-4-(ethylcarbamoyl)phenyl]amino}-[1,2,4]triazolo[1,5-a]pyridin-6-yl)piperidine-4-carboxamide] | 68.8
CCOc1cc(C(=O)N2CCOCC2)ccc1Nc1nc2ccc(N3CCC(C(=O)NCC4CC4)CC3)cn2n1 [Example 03.02, N-(cyclopropylmethyl)-1-(2-{[2-ethoxy-4-(morpholin-4-ylcarbonyl)phenyl]-amino}[1,2,4]triazolo[1,5-a]pyridin-6-yl)piperidine-4-carboxamide] | 67.8
CCNC(=O)c1ccc(Nc2nc3ccc(N4CCC(NC(=O)Cc5ccc(F)cc5)CC4)cn3n2)c(OCC)c1 [Example 04.01, 3-ethoxy-N-ethyl-4-{[6-(4-{[(4-fluorophenyl)acetyl]amino}piperidin-1-yl)-[1,2,4]triazolo[1,5-a]pyridin-2-yl]amino}benzamide] | 7.1
CCOc1cc(C(=O)N2CCOCC2)ccc1Nc1nc2ccc(N3CCC(NC(=O)Cc4ccc(F)cc4)CC3)cn2n1 [Example 04.02, N-[1-(2-{[2-ethoxy-4-(morpholin-4-ylcarbonyl)phenyl]amino}[1,2,4]-triazolo[1,5-a]pyridin-6-yl)piperidin-4-yl]-2-(4-fluorophenyl)acetamide] | 12.8
CCOc1ncccc1Nc1nc2ccc(N3CCC(NC(=O)Cc4ccc(F)cc4)CC3)cn2n1 [Example 04.03, N-(1-{2-[(2-ethoxypyridin-3-yl)amino][1,2,4]triazolo[1,5-a]pyridin-6-yl}-piperidin-4-yl)-2-(4-fluorophenyl)acetamide] | 32.8
O=C(NCc1ccc(F)cc1)NC1CCN(c2ccc3nc(Nc4ccc(C(=O)N5CCOCC5)cc4OCC(F)(F)F)nn3c2)C1 (stereo not drawn) [Example 05.01, 1-(4-fluorobenzyl)-3-[1-(2-{[4-(morpholin-4-ylcarbonyl)-2-(2,2,2-trifluoroethoxy)phenyl]amino}[1,2,4]triazolo[1,5-a]pyridin-6-yl)pyrrolidin-3-yl]urea] | 46.9
